Measurements from article PMC7377239, “Cardiovascular Effects of Polychlorinated Biphenyls and Their Major Metabolites” (Environmental Health Perspectives, 2020).
Where a name gives a salt, the structure may show the parent alone. Read-outs that look alike come from different tables or passages of the source.

Legend:
[1] = tested on: iCell cardiomyocytes (human iPSC-derived cardiomyocytes); experiment: High-content imaging of cytotoxicity and mitochondrial integrity in iPSC-CMs; type: cell-based
In short: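 Readouts from high-content images were normalized to vehicle controls containing 0.5% vol/vol DMSO. They were fit to a four-parameter logistic model in R. Points of departure were set using a cutoff of one standard deviation across vehicle control means. Where no concentration–response was seen, the top tested concentration of 100μM was assigned as the no observable adverse effect level.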

[2] = tested on: iPSC-CMs, iPSC-ECs and HUVECs phenotypes; experiment: ToxPi 2.0 integration of POD values and physicochemical descriptors; parameters: species or system human; conditions: ToxPi-scaled (0-1) score; for huvec.cyto.24hr / huvec.mito.24hr / huvec.mitoint.24hr / huvec.nma.24hr / huvec.tc.24hr / huvec.mtl.18hr / huvec.tlps.18hr / huvec.tta.18hr / huvec.ttl.18hr: HUVECs; for huvec.mtl.18hr / huvec.tlps.18hr / huvec.tta.18hr / huvec.ttl.18hr / endo.mtl.18hr / endo.tlps.18hr / endo.tta.18hr / endo.ttl.18hr: tube formation; for cm.amp.avg.90min / cm.amp.cv.90min / cm.bpm.90min / cm.cam.90min / cm.decay.rise.90min / cm.mii.90min / cm.mito.90min / cm.spacing.cv.90min / cm.tc.90min / cm.amp.avg.24hrs / cm.amp.cv.24hrs / cm.bpm.24hrs / cm.cam.24hrs / cm.decay.rise.24hrs / cm.mii.24hrs / cm.mito.24hrs / cm.spacing.cv.24hrs / cm.tc.24hrs: iPSC cardiomyocytes; for endo.cyto.24hr / endo.mito.24hr / endo.mitoint.24hr / endo.nma.24hr / endo.tc.24hr / endo.mtl.18hr / endo.tlps.18hr / endo.tta.18hr / endo.ttl.18hr: iPSC endothelial cells
In short: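 Phenotypic readouts in iPSC-cardiomyocytes, iPSC-endothelial cells and HUVECs were normalised to 0.5% DMSO vehicle and fitted to a four-parameter logistic model. POD set at one SD cutoff of vehicle means, with 100 μM assigned when no response. PODs and physicochemical descriptors combined in ToxPi 2.0 scores.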

[3] = 100.00 µM, 90min, 0.00 µM = 100.00
[4] = Homo sapiens, Cardiomyocyte, 1.5 h, 90min, 0.00 µM = 100.00, read-out: cm.cam.90min
[5] = Homo sapiens, Cardiomyocyte, 1.5 h, 90min, 0.00 µM = 100.00, read-out: cm.mii.90min
[6] = Homo sapiens, Cardiomyocyte, 1.5 h, 90min, 0.00 µM = 100.00, read-out: cm.mito.90min
[7] = Homo sapiens, Cardiomyocyte, 1.5 h, 90min, 0.00 µM = 100.00, read-out: cm.tc.90min
[8] = Homo sapiens, Cardiomyocyte, 24 h, 24hrs, 0.00 µM = 100.00, read-out: cm.cam.24hrs
[9] = Homo sapiens, Cardiomyocyte, 24 h, 24hrs, 0.00 µM = 100.00, read-out: cm.mii.24hrs
[10] = Homo sapiens, Cardiomyocyte, 24 h, 24hrs, 0.00 µM = 100.00, read-out: cm.mito.24hrs
[11] = Homo sapiens, Cardiomyocyte, 24 h, 24hrs, 0.00 µM = 100.00, read-out: cm.tc.24hrs
[12] = Homo sapiens, Cardiomyocyte, 24 h, cardiomyocytes (cm), mii, 24 hrs, read-out: POD cm.mii.24hrs
[13] = Homo sapiens, Cardiomyocyte, 1.5 h, cardiomyocytes (cm), cam, 90 min, read-out: POD cm.cam.90min
[14] = Homo sapiens, Cardiomyocyte, 1.5 h, cardiomyocytes (cm), mii, 90 min, read-out: POD cm.mii.90min
[15] = Homo sapiens, Cardiomyocyte, 1.5 h, cardiomyocytes (cm), mito, 90 min, read-out: POD cm.mito.90min
[16] = Homo sapiens, Cardiomyocyte, 1.5 h, cardiomyocytes (cm), tc, 90 min, read-out: POD cm.tc.90min
[17] = Homo sapiens, Cardiomyocyte, 24 h, cardiomyocytes (cm), cam, 24 hrs, read-out: POD cm.cam.24hrs
[18] = Homo sapiens, Cardiomyocyte, 24 h, cardiomyocytes (cm), mito, 24 hrs, read-out: POD cm.mito.24hrs
[19] = Homo sapiens, Cardiomyocyte, 24 h, cardiomyocytes (cm), tc, 24 hrs, read-out: POD cm.tc.24hrs

Clc1ccc(Cl)c(-c2c(Cl)ccc(Cl)c2Cl)c1Cl [(+)-PCB 136, 2,2′,3,3′,6,6′-hexachlorobiphenyl]
cm.mii.24hrs ([1]; 0.10 µM, 24hrs, 0.00 µM = 100.00): 104.89 | cm.mito.24hrs ([1]; 10.00 µM, 24hrs, 0.00 µM = 100.00): 66.95 | cm.mii.90min [1, 3]: 30.66 | cm.mito.90min [1, 3]: 0.83 | cm.mii.24hrs ([1]; 100.00 µM, 24hrs, 0.00 µM = 100.00): 35.96 | viability at 0.01 µM [1, 4]: 94% | activity at 0.01 µM [1, 5]: 115% | activity at 0.01 µM [1, 6]: 94.1% | viability at 0.01 µM [1, 7]: 94.5% | viability at 0.1 µM ([1]; Homo sapiens, Cardiomyocyte, 1.5 h, 0.10 µM, 90min, 0.00 µM = 100.00, read-out: cm.cam.90min): 100% | activity at 0.1 µM ([1]; Homo sapiens, Cardiomyocyte, 1.5 h, 0.10 µM, 90min, 0.00 µM = 100.00, read-out: cm.mii.90min): 108% | activity at 0.1 µM ([1]; Homo sapiens, Cardiomyocyte, 1.5 h, 0.10 µM, 90min, 0.00 µM = 100.00, read-out: cm.mito.90min): 100% | viability at 0.1 µM ([1]; Homo sapiens, Cardiomyocyte, 1.5 h, 0.10 µM, 90min, 0.00 µM = 100.00, read-out: cm.tc.90min): 100% | viability at 1 µM [1, 4]: 97.7% | activity at 1 µM [1, 5]: 103% | activity at 1 µM [1, 6]: 97.5% | viability at 1 µM [1, 7]: 97.8% | viability at 10 µM ([1]; Homo sapiens, Cardiomyocyte, 1.5 h, 10.00 µM, 90min, 0.00 µM = 100.00, read-out: cm.cam.90min): 101% | activity at 10 µM ([1]; Homo sapiens, Cardiomyocyte, 1.5 h, 10.00 µM, 90min, 0.00 µM = 100.00, read-out: cm.mii.90min): 101% | activity at 10 µM ([1]; Homo sapiens, Cardiomyocyte, 1.5 h, 10.00 µM, 90min, 0.00 µM = 100.00, read-out: cm.mito.90min): 102% | viability at 10 µM ([1]; Homo sapiens, Cardiomyocyte, 1.5 h, 10.00 µM, 90min, 0.00 µM = 100.00, read-out: cm.tc.90min): 102% | viability at 0.01 µM [1, 8]: 92.8% | activity at 0.01 µM [1, 9]: 90.7% | activity at 0.01 µM [1, 10]: 95.4% | viability at 0.01 µM [1, 11]: 95.4% | viability at 0.1 µM ([1]; Homo sapiens, Cardiomyocyte, 24 h, 0.10 µM, 24hrs, 0.00 µM = 100.00, read-out: cm.cam.24hrs): 96.6% | activity at 0.1 µM ([1]; Homo sapiens, Cardiomyocyte, 24 h, 0.10 µM, 24hrs, 0.00 µM = 100.00, read-out: cm.mito.24hrs): 98.1% | viability at 0.1 µM ([1]; Homo sapiens, Cardiomyocyte, 24 h, 0.10 µM, 24hrs, 0.00 µM = 100.00, read-out: cm.tc.24hrs): 96.6% | viability at 1 µM [1, 8]: 95.6% | activity at 1 µM [1, 9]: 86.4% | activity at 1 µM [1, 10]: 97% | viability at 1 µM [1, 11]: 96.3% | activity at 10 µM ([1]; Homo sapiens, Cardiomyocyte, 24 h, 10.00 µM, 24hrs, 0.00 µM = 100.00, read-out: cm.mii.24hrs): 99.9% | viability at 100 µM ([1]; Homo sapiens, Cardiomyocyte, 24 h, 100.00 µM, 24hrs, 0.00 µM = 100.00, read-out: cm.cam.24hrs): 1.96% | activity at 100 µM ([1]; Homo sapiens, Cardiomyocyte, 24 h, 100.00 µM, 24hrs, 0.00 µM = 100.00, read-out: cm.mito.24hrs): 1.15% | viability at 100 µM ([1]; Homo sapiens, Cardiomyocyte, 24 h, 100.00 µM, 24hrs, 0.00 µM = 100.00, read-out: cm.tc.24hrs): 2.72% | minimal effective concentration [1, 12]: 50.8 µM | minimal effective concentration ([1]; Homo sapiens, Cardiomyocyte, 24 h, read-out: cm.mii.24hrs POD): 50.8 µM | huvec.cyto.24hr [2]: 0.7118 | huvec.mito.24hr [2]: 0.6728 | huvec.mitoint.24hr [2]: 1 | huvec.nma.24hr [2]: 0.5111 | huvec.tc.24hr [2]: 0.7118 | huvec.mtl.18hr [2]: 0.4492 | huvec.tlps.18hr [2]: 0 | huvec.tta.18hr [2]: 0 | huvec.ttl.18hr [2]: 0 | cm.amp.avg.90min [2]: 0.6409 | cm.amp.cv.90min [2]: 0.2396 | cm.bpm.90min [2]: 0.7987 | cm.cam.90min [2]: 0.4781 | cm.decay.rise.90min [2]: 0.1898 | cm.mii.90min [2]: 0.5827 | cm.mito.90min [2]: 0.4679 | cm.spacing.cv.90min [2]: 0.07704 | cm.tc.90min [2]: 0.4097 | cm.amp.avg.24hrs [2]: 0.5612 | cm.amp.cv.24hrs [2]: 0.5448 | cm.bpm.24hrs [2]: 0.7213 | cm.cam.24hrs [2]: 0.5816 | cm.decay.rise.24hrs [2]: 0.9212 | cm.mii.24hrs [2]: 0.1793 | cm.mito.24hrs [2]: 0.8542 | cm.spacing.cv.24hrs [2]: 0.7501 | cm.tc.24hrs [2]: 1 | endo.cyto.24hr [2]: 0.1692 | endo.mito.24hr [2]: 0.1692 | endo.mitoint.24hr [2]: 0.294 | endo.nma.24hr [2]: 0 | endo.tc.24hr [2]: 0.1732 | endo.mtl.18hr [2]: 0.04754 | endo.tlps.18hr [2]: 0.448 | endo.tta.18hr [2]: 0.8586 | endo.ttl.18hr [2]: 0.8499

COc1cc(Cl)c(-c2cc(Cl)ccc2Cl)cc1Cl [4-OMe-PCB 52, 4-methoxy-2,2′,5,5′-tetrachlorobiphenyl]
minimal effective concentration [1, 13]: 27.6 µM | minimal effective concentration [1, 14]: 57.2 µM | minimal effective concentration [1, 15]: 18.6 µM | minimal effective concentration [1, 16]: 33 µM | minimal effective concentration [1, 17]: 33 µM | minimal effective concentration [1, 12]: 5.58 µM | minimal effective concentration [1, 18]: 35.8 µM | minimal effective concentration [1, 19]: 35 µM | huvec.cyto.24hr [2]: 0.503 | huvec.mito.24hr [2]: 0.6182 | huvec.mitoint.24hr [2]: 0.7163 | huvec.nma.24hr [2]: 0.4778 | huvec.tc.24hr [2]: 0.503 | huvec.mtl.18hr [2]: 0.3949 | huvec.tlps.18hr [2]: 0.3694 | huvec.tta.18hr [2]: 0 | huvec.ttl.18hr [2]: 0 | cm.amp.avg.90min [2]: 0.7151 | cm.amp.cv.90min [2]: 0.1921 | cm.bpm.90min [2]: 0.6456 | cm.cam.90min [2]: 0.5317 | cm.decay.rise.90min [2]: 0.5533 | cm.mii.90min [2]: 0.2088 | cm.mito.90min [2]: 0.6868 | cm.spacing.cv.90min [2]: 0.09243 | cm.tc.90min [2]: 0.4554 | cm.amp.avg.24hrs [2]: 0 | cm.amp.cv.24hrs [2]: 0.07106 | cm.bpm.24hrs [2]: 0.2075 | cm.cam.24hrs [2]: 0.1487 | cm.decay.rise.24hrs [2]: 0.2631 | cm.mii.24hrs [2]: 0.763 | cm.mito.24hrs [2]: 0.2211 | cm.spacing.cv.24hrs [2]: 0.2504 | cm.tc.24hrs [2]: 0.2416 | endo.cyto.24hr [2]: 0.1456 | endo.mito.24hr [2]: 0.1456 | endo.mitoint.24hr [2]: 0 | endo.nma.24hr [2]: 0.1018 | endo.tc.24hr [2]: 0.1602 | endo.mtl.18hr [2]: 0.06827 | endo.tlps.18hr [2]: 0.09286 | endo.tta.18hr [2]: 0.06026 | endo.ttl.18hr [2]: 0.05573

O=S(=O)(O)Oc1cccc(-c2ccc(Cl)cc2)c1 [3'-PCB 3 sulfate]
minimal effective concentration [1, 13]: 100 µM | minimal effective concentration [1, 14]: 89.9 µM | minimal effective concentration [1, 15]: 100 µM | minimal effective concentration [1, 16]: 100 µM | minimal effective concentration [1, 17]: 100 µM | minimal effective concentration [1, 12]: 100 µM | minimal effective concentration [1, 18]: 100 µM | minimal effective concentration [1, 19]: 100 µM | huvec.cyto.24hr [2]: 0 | huvec.mito.24hr [2]: 0 | huvec.mitoint.24hr [2]: 0 | huvec.nma.24hr [2]: 0 | huvec.tc.24hr [2]: 0 | huvec.mtl.18hr [2]: 0.4173 | huvec.tlps.18hr [2]: 0 | huvec.tta.18hr [2]: 0 | huvec.ttl.18hr [2]: 0 | cm.amp.avg.90min [2]: 0 | cm.amp.cv.90min [2]: 0 | cm.bpm.90min [2]: 0.07423 | cm.cam.90min [2]: 0 | cm.decay.rise.90min [2]: 0 | cm.mii.90min [2]: 0.03988 | cm.mito.90min [2]: 0 | cm.spacing.cv.90min [2]: 0 | cm.tc.90min [2]: 0 | cm.amp.avg.24hrs [2]: 0 | cm.amp.cv.24hrs [2]: 0 | cm.bpm.24hrs [2]: 0 | cm.cam.24hrs [2]: 0 | cm.decay.rise.24hrs [2]: 0 | cm.mii.24hrs [2]: 0 | cm.mito.24hrs [2]: 0 | cm.spacing.cv.24hrs [2]: 0 | cm.tc.24hrs [2]: 0 | endo.cyto.24hr [2]: 0 | endo.mito.24hr [2]: 0 | endo.mitoint.24hr [2]: 0 | endo.nma.24hr [2]: 0 | endo.tc.24hr [2]: 0 | endo.mtl.18hr [2]: 0.5389 | endo.tlps.18hr [2]: 0.1522 | endo.tta.18hr [2]: 0.1963 | endo.ttl.18hr [2]: 0.2248
